# Test results from patent US20230303712A1, “METHODS OF TREATING GLIOBLASTOMA” (Ramot at Tel-Aviv University Ltd., priority 2020, published 2023).
# Experiments:
# P-Selectin = target: T1, P-Selectin (Homo sapiens, UniProt P16109); conditions: cited from earlier work
# T1 sequence (P16109 42-830): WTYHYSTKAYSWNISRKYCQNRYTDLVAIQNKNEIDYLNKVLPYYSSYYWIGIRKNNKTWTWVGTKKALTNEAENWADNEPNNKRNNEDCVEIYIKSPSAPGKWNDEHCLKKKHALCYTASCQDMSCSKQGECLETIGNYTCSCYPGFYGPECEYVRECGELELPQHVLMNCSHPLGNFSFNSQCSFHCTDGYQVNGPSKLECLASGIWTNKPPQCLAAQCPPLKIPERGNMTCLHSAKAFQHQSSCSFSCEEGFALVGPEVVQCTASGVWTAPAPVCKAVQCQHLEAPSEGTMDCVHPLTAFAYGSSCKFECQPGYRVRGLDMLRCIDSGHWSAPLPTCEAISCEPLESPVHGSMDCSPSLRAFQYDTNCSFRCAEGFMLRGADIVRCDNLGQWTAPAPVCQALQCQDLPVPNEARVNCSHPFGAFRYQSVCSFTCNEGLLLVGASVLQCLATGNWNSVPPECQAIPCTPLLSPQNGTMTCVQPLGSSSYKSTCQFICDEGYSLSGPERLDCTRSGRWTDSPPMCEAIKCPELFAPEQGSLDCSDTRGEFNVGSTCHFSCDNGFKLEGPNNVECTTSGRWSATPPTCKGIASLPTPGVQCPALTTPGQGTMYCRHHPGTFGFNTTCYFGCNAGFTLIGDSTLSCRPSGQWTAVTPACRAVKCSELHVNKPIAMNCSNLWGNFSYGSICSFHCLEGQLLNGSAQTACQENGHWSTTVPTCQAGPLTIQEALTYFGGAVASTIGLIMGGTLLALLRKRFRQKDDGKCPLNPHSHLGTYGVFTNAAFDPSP
# U251 and PD-GB4 GB cells = test: In vitro cytotoxicity of SELPi (annexin-FITC/PI apoptosis-necrosis staining); format: cell-based, human
# Description: Flow cytometry. For flow cytometry assays, cells were harvested using a cell scraper, and were then washed with PBS followed by additional washes with PBS supplemented with 1% BSA and 5 mM EDTA (FACS buffer). Tumor spheroids were recovered from Matrigel using Cell Recovery Solution (Corning) and washed with FACS buffer. To validate the purity of the microglia preparations, CD11b isolated cells or human microglia were incubated with TMEM119 and P2Y12-labeled antibodies for 1 h. For human TMEM119, primary antibody was unlabeled and cells were washed and incubated with secondary, Alexa 488 conjugated antibody. To assess P-Selectin and PSGL-1 expression, GB cells and microglia were seeded alone, co-cultured in a 2D petri dish, or grown as spheroids seeded in Matrigel. Cells were treated with control medium or CM for 48 h. They were then incubated with mouse anti-human P-Selectin antibody for 1 h on ice, and then were washed, and incubated with Alexa-488 labeled anti-mouse IgG binding protein for 1 h on ice. Alternatively, cells were incubated with rat anti-human PSGL antibody, and then were washed, and incubated with goat anti-rat, Alexa-488 labeled antibody for 1 h on ice. […] Fluorescence intensity was assessed using either an Attune flow cytometer (Life Technologies) or a Gallios™ flow cytometer (Beckman Coulter, USA) and the results were analyzed by Kaluza software (Beckman Coulter, USA).
# primary human microglia = test: Nitric oxide secretion evaluation; format: cell-based; conditions: added to rSELP; SELPi 0.5 µM, antibodies 2.5 µg/ml, 24 h
# Description: Nitric oxide secretion evaluation. Primary human/murine microglia (1 × 10^5 cells/ml) were seeded in PLL-coated plates. Twenty-four hours post-seeding, cells were treated with: 0% serum DMEM, 0% serum DMEM supplemented rSELP (1.5 µg/ml), 0% serum DMEM exposed to rSELP and SELPi (0.5 µM), 0% serum DMEM exposed to rSELP and anti-PSGL-1 neutralizing antibody (2.5 µg/ml), 0% serum DMEM exposed to rSELP and anti-CD44 neutralizing antibody (2.5 µg/ml), or 0% serum DMEM exposed to rSELP and anti-CD24 neutralizing antibody (2.5 µg/ml) for 24 h. Alternatively, macrophages were seeded in 96 well plates (5 × 10^5 cells/ml) treated with macrophages medium, macrophages medium supplemented with rSELP (3.5 µg/ml), macrophages medium supplemented with rSELP and SELPi (0.5 µM), macrophages medium supplemented with rSELP and anti-PSGL-1 neutralizing antibody (2.5 µg/ml), macrophages medium supplemented with rSELP and anti-CD44 neutralizing antibody (2.5 µg/ml) or macrophages medium supplemented with rSELP and anti-CD24 neutralizing antibody (2.5 µg/ml) for 24 h. Medium was then collected for evaluation of nitrite levels by the Total Nitric Oxide and Nitrate/Nitrite Parameter Assay Kit. Optical density was measured by a SpectraMax M5e multi-detection microplate reader system (Molecular Devices).
compound,measurement,setting,value
"COc1ccc(C2CC(c3c(O)cc(C)oc3=O)=NCCS2)c(OC)c1 (centres unmarked) [SELPi, 3-[7-(2,4-Dimethoxyphenyl)-2,3,6,7-tetrahydro-1,4-thiazepin-5-yl]-4-hydroxy-6-methyl-2H-pyran-2-one]",IC50,P-Selectin; P-Selectin inhibition,1.97 µM
same,blocking of SELP-binding,P-Selectin; in vitro and in vivo,block SELP-binding
same,toxicity,U251 and PD-GB4 GB cells; 0.5 µM SELPi (working concentration),no toxicity was observed
same,percentage of apoptotic cells,"U251 and PD-GB4 GB cells; 5 and 10 µM SELPi, 72 h",slight increase in the percentage of apoptotic cells
same,restoration of NO levels,primary human microglia,restored
